What was measured:
[1] = system: Colo38, Colo38R, M21, M21R and TPF-10-741 cells; experiment: MTT dose titration of PDGFRα-I; type: cell-based; settings: Homo sapiens; dose titration experiment, MTT assay, the 5 cell lines; read-out: IC50 doses
Description: MTT assay was carried out as reported elsewhere^2. […] All experiments were performed three independent times in triplicates.
A dose titration experiment established the dose of PDGFRα-I to be combined with vemurafenib in the 5 cell lines.

[2] = system: p-ERK; experiment: Western blot of cell lysates, p-ERK; settings: Colo38R, M21R and TPF-10-741 cells; vemurafenib 1 μM, sunitinib 3 μM, imatinib 20 μM
Description: A. Following an incubation at indicated time points at 37° C. cells were harvested and lysed. Cell lysates were analyzed by western blot with the indicated mAbs. β-actin-was used as a loading control. B. Following a 48 h incubation at 37° C. cells were harvested and lysed. Cell lysates were analyzed by western blot with the indicated mAbs. β-actin or Calnexin were used as a loading control. The results presented are representative of the results obtained in three independent experiments.
A. M21R and TPF-10-741 cells were transduced with PDGFRα-specific shRNA (#4) or with GFP-shRNA, used as a control, lentiviral particles. […] Following a three day incubation at 37° C. cells were harvested and lysed. Cell lysates were analyzed by western blot with the indicated mAbs. β-actin was used as a loading control. […] Cell proliferation was determined by MTT assay following a three day incubation at 37° C. Percentage of cell proliferation was calculated as the ratio of treated cells to untreated GFP-shRNA transduced cells. Data are expressed as mean±SD of the results obtained in three independent experiments. *** indicates P<0.01.
Following an incubation at indicated time points at 37° C. cells were harvested and lysed. Cell lysates were analyzed by western blot with the indicated mAbs. β-actin was used as a loading control. […]

[3] = system: melanoma cells; experiment: Overcoming BRAF-I resistance mediated by PDGFRβ upregulation; type: cell-based; settings: as reported and as found by the applicant

| IC50 [1] | SMILES | other results |
| --- | --- | --- |
| 1000 nM | CC1(COc2ccc3c(c2)ncn3-c2ccc3cccc(N4CCC(N)CC4)c3n2)COC1 [crenolanib] |  |
|  | CCCS(=O)(=O)Nc1ccc(F)c(C(=O)c2c[nH]c3ncc(-c4ccc(Cl)cc4)cc23)c1F [vemurafenib] | p-ERK levels [2]: not inhibited |
| 2000 nM | CCN(CC)CCNC(=O)c1c(C)[nH]c(/C=C2\C(=O)Nc3ccc(F)cc32)c1C [sunitinib] |  |
|  | Cc1ccc(NC(=O)c2ccc(CN3CCN(C)CC3)cc2)cc1Nc1nccc(-c2cccnc2)n1 [imatinib] | ability to overcome BRAF-I resistance mediated by PDGFRβ upregulation [3]: not able to overcome |

Reference: patent publication US10220091B2, “Combination treatments with sonic hedgehog inhibitors” (The General Hospital Corporation, priority 2013, dated 2019)
